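GI50 marks 50% less growth. TGI: total growth inhibition.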
Key:
Assay in all cases: NCI anticancer screen, dose series, 384-well format
786-0 renal = tested on: 786-0 renal
A498 renal = tested on: A498 renal
A549 NSCLC = tested on: A549 NSCLC
BT-549 breast = tested on: BT-549 breast
CCRF-CEM leukemia = tested on: CCRF-CEM leukemia
DU-145 prostate = tested on: DU-145 prostate
HCC-2998 colon = tested on: HCC-2998 colon
HCT-116 colon = tested on: HCT-116 colon
HL-60(TB) leukemia = tested on: HL-60(TB) leukemia
HOP-62 NSCLC = tested on: HOP-62 NSCLC
HOP-92 NSCLC = tested on: HOP-92 NSCLC
HS 578T breast = tested on: HS 578T breast
HT29 colon = tested on: HT29 colon
K-562 leukemia = tested on: K-562 leukemia
KM12 colon = tested on: KM12 colon
M14 melanoma = tested on: M14 melanoma
MALME-3M melanoma = tested on: MALME-3M melanoma
MCF7 breast = tested on: MCF7 breast
MDA-MB-231 breast = tested on: MDA-MB-231 breast
MDA-MB-435 melanoma = tested on: MDA-MB-435 melanoma
NCI-H226 lung = tested on: NCI-H226 lung
NCI-H23 lung = tested on: NCI-H23 lung
NCI-H322M lung = tested on: NCI-H322M lung
NCI-H460 NSCLC = tested on: NCI-H460 NSCLC
NCI-H522 lung = tested on: NCI-H522 lung
NCI/ADR-RES ovarian = tested on: NCI/ADR-RES ovarian
OVCAR-3 ovarian = tested on: OVCAR-3 ovarian
OVCAR-4 ovarian = tested on: OVCAR-4 ovarian
OVCAR-5 ovarian = tested on: OVCAR-5 ovarian
OVCAR-8 ovarian = tested on: OVCAR-8 ovarian
PC-3 prostate = tested on: PC-3 prostate
RPMI-8226 leukemia = tested on: RPMI-8226 leukemia
RXF 393 renal = tested on: RXF 393 renal
SF-268 CNS = tested on: SF-268 CNS
SF-295 CNS = tested on: SF-295 CNS
SK-MEL-28 melanoma = tested on: SK-MEL-28 melanoma
SK-MEL-5 melanoma = tested on: SK-MEL-5 melanoma
SN12C renal = tested on: SN12C renal
SNB-19 CNS = tested on: SNB-19 CNS
SNB-75 CNS = tested on: SNB-75 CNS
SR leukemia = tested on: SR leukemia
T-47D breast = tested on: T-47D breast
TK-10 renal = tested on: TK-10 renal
U251 glioblastoma = tested on: U251 glioblastoma
UACC-257 melanoma = tested on: UACC-257 melanoma
UACC-62 melanoma = tested on: UACC-62 melanoma
UO-31 renal = tested on: UO-31 renal

SMILES: O=c1[nH]nc2c3c(cccc13)NC(CN1Cc3ccccc3C1)=N2
- GI50 ([…]-0 renal): 5.12 µM
- TGI (786-0 renal): > 67.4 µM
- GI50 (A498 renal): 3.21 µM
- TGI (A498 renal): 12.4 µM
- GI50 (A549 NSCLC): 5.19 µM
- TGI (A549 NSCLC): 67.5 µM
- GI50 (BT-549 breast): 6.22 µM
- TGI (BT-549 breast): 39.7 µM
- GI50 (CCRF-CEM leukemia): 3.91 µM
- TGI (CCRF-CEM leukemia): 15.2 µM
- GI50 (DU-145 prostate): 2.96 µM
- TGI (DU-145 prostate): 24.1 µM
- GI50 (HCC-2998 colon): 3.34 µM
- TGI (HCC-2998 colon): 17.9 µM
- GI50 (HCT-116 colon): 8.67 µM
- TGI (HCT-116 colon): > 100 µM
- GI50 (HL-60(TB) leukemia): 12.9 µM
- TGI (HL-60(TB) leukemia): > 100 µM
- GI50 (HOP-62 NSCLC): 4.06 µM
- TGI (HOP-62 NSCLC): > 100 µM
- GI50 (HOP-92 NSCLC): 2.5 µM
- TGI (HOP-92 NSCLC): 16.9 µM
- GI50 (HS 578T breast): 5.78 µM
- TGI (HS 578T breast): > 100 µM
- GI50 (HT29 colon): 4.31 µM
- TGI (HT29 colon): 26.3 µM
- GI50 (K-562 leukemia): 7.51 µM
- TGI (K-562 leukemia): > 100 µM
- GI50 (KM12 colon): 6.04 µM
- TGI (KM12 colon): > 62.4 µM
- GI50 (M14 melanoma): 6.09 µM
- TGI (M14 melanoma): > 100 µM
- GI50 (MALME-3M melanoma): 6 µM
- TGI (MALME-3M melanoma): > 100 µM
- GI50 (MCF7 breast): 7.24 µM
- TGI (MCF7 breast): > 100 µM
- GI50 (MDA-MB-231 breast): 2.81 µM
- TGI (MDA-MB-231 breast): 14.5 µM
- GI50 (MDA-MB-435 melanoma): 3.74 µM
- TGI (MDA-MB-435 melanoma): 15.6 µM
- GI50 (NCI-H226 lung): 3.21 µM
- TGI (NCI-H226 lung): 52 µM
- GI50 (NCI-H23 lung): 2.27 µM
- TGI (NCI-H23 lung): 15.3 µM
- GI50 (NCI-H322M lung): 5.1 µM
- TGI (NCI-H322M lung): > 45.7 µM
- GI50 (NCI-H460 NSCLC): 5.18 µM
- TGI (NCI-H460 NSCLC): > 71.8 µM
- GI50 (NCI-H522 lung): 2.49 µM
- TGI (NCI-H522 lung): 7.83 µM
- GI50 (NCI/ADR-RES ovarian): 9.41 µM
- TGI (NCI/ADR-RES ovarian): > 100 µM
- GI50 (OVCAR-3 ovarian): 3.75 µM
- TGI (OVCAR-3 ovarian): > 88.3 µM
- GI50 (OVCAR-4 ovarian): 2.14 µM
- TGI (OVCAR-4 ovarian): 12 µM
- GI50 (OVCAR-5 ovarian): 3.89 µM
- TGI (OVCAR-5 ovarian): 22.6 µM
- GI50 (OVCAR-8 ovarian): 5.38 µM
- TGI (OVCAR-8 ovarian): > 100 µM
- GI50 (PC-3 prostate): 4.32 µM
- TGI (PC-3 prostate): 57.5 µM
- GI50 (RPMI-8226 leukemia): 13.8 µM
- TGI (RPMI-8226 leukemia): > 100 µM
- GI50 (RXF 393 renal): 2.26 µM
- TGI (RXF 393 renal): 7.28 µM
- GI50 (SF-268 CNS): 4.68 µM
- TGI (SF-268 CNS): 37.2 µM
- GI50 (SF-295 CNS): 10.7 µM
- TGI (SF-295 CNS): > 100 µM
- GI50 (SK-MEL-28 melanoma): 5.99 µM
- TGI (SK-MEL-28 melanoma): 27.6 µM
- GI50 (SK-MEL-5 melanoma): 3.42 µM
- TGI (SK-MEL-5 melanoma): > 56.2 µM
- GI50 (SN12C renal): 4.09 µM
- TGI (SN12C renal): > 39.4 µM
- GI50 (SNB-19 CNS): 48 µM
- TGI (SNB-19 CNS): > 100 µM
- GI50 (SNB-75 CNS): 2.32 µM
- TGI (SNB-75 CNS): 18.9 µM
- GI50 (SR leukemia): 2.36 µM
- TGI (SR leukemia): 8.2 µM
- GI50 (T-47D breast): 22.8 µM
- TGI (T-47D breast): > 100 µM
- GI50 (TK-10 renal): 2.7 µM
- TGI (TK-10 renal): 17.1 µM
- GI50 (U251 glioblastoma): 7.61 µM
- TGI (U251 glioblastoma): > 100 µM
- GI50 (UACC-257 melanoma): > 100 µM
- TGI (UACC-257 melanoma): > 100 µM
- GI50 (UACC-62 melanoma): 7.14 µM
- TGI (UACC-62 melanoma): > 100 µM
- GI50 (UO-31 renal): 11.4 µM
- TGI (UO-31 renal): > 100 µM

Reference: PubChem BioAssay (NCI)
